# According to patent US20040110771A1, “7-(r)-aminotriazolopyrimidines, the production thereof and use of the same for combatting phytopathogenic fungi” (priority 2000, published 2004):
# Legend:
# Format in all cases: in vivo
# Puccinia recondita = assay: Curative activity against brown rust of wheat caused by Puccinia recondita; conditions: curative spray 24 h after inoculation, wheat seedlings "Kanzler", 7 days
# Summary of the method: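 Wheat seedlings (cv. Kanzler) inoculated with brown rust spores and held 24 h at 90–95% humidity and 20–22°C, then sprayed to runoff with the emulsified compound the next day. Rust development on leaves scored after 7 days in greenhouse at 20–22°C and 65–70% relative humidity.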
# [1] = system: Blumeria graminis forma specialis tritici; assay: Activity against mildew of wheat caused by Blumeria graminis forma specialis tritici; conditions: wheat seedlings "Kanzler", dusted with spores 24 h after spraying, 7 days
# Summary of the method: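 Protective test: Blumeria graminis f. sp. tritici spores dusted onto cv. Kanzler wheat seedling leaves 24 h after spray deposit of aqueous compound preparation had dried. After 7 days in greenhouse (20-24° C., 60-90% relative humidity), infection estimated by eye as % of total leaf area.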
# Septoria tritici = assay: Protective activity against Septoria foliar blotch disease of wheat caused by Septoria tritici; conditions: wheat seedlings "Riband", inoculated 24 h after spraying, 2 weeks
# Protocol: The active compounds were prepared separately or jointly as a 10% strength emulsion in a mixture of 70% by weight of cyclohexanone, 20% by weight of Nekanil® LN (Lutensol® AP6, wetting agent having emulsifying and dispersing action based on ethoxylated alkylphenols) and 10% by weight of Wettol® EM (nonionic emulsifier based on ethoxylated castor oil) and diluted with water to the desired concentration.
# Leaves of potted wheat seedlings of the cultivar “Riband” were sprayed to runoff point with an aqueous preparation of active compound which had been prepared from a stock solution made of 10% of active compound, 85% of cyclohexanone and 5% of emulsifier. 24 hours after the spray coating had dried on, they were inoculated with an aqueous spore suspension of Septoria tritici. The suspension contained 2.0×10^6 spores/ml. The test plants were then placed in a greenhouse at 18-22° C. and a relative atmospheric humidity of close to 100%. After 2 weeks, the extent of the development of the disease was determined visually in % infection of the entire leaf area.
# Pyrenophora teres = assay: Activity against net blotch of barley caused by Pyrenophora teres; conditions: barley seedlings "Igri", inoculated 24 h after spraying, 6 days
# Summary of the method: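 Disease was read as visually estimated % infection of total leaf area 6 days after inoculation (greenhouse, 20-24° C, 95-100% humidity). Seedlings of cultivar Igri had been sprayed to runoff point with diluted compound emulsion and inoculated with a P. teres spore suspension 24 h later.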
SMILES,% infection of the leaves after application of an aqueous preparation comprising . . . ppm of active compound (Puccinia recondita; 16 ppm) [%],% infection of the leaves after application of an aqueous preparation comprising . . . ppm of active compound (Puccinia recondita; 63 ppm) [%],% infection of the leaves after application of an aqueous preparation comprising . . . ppm of active compound ([1]; 16 ppm) [%],% infection of the leaves after application of an aqueous preparation comprising . . . ppm of active compound ([1]; 63 ppm) [%],% infection of the leaves after application of an aqueous preparation comprising . . . ppm of active compound ([1]; 250 ppm) [%],% infection of the leaves after application of an aqueous preparation comprising . . . ppm of active compound (Septoria tritici; 16 ppm) [%],% infection of the leaves after application of an aqueous preparation comprising . . . ppm of active compound (Septoria tritici; 63 ppm) [%],% infection of the leaves after application of an aqueous preparation comprising . . . ppm of active compound (Septoria tritici; 250 ppm) [%],% infection of the leaves after application of an aqueous preparation comprising . . . ppm of active compound (Pyrenophora teres; 16 ppm) [%],% infection of the leaves after application of an aqueous preparation comprising . . . ppm of active compound (Puccinia recondita; 250 ppm) [%],% infection of the leaves after application of an aqueous preparation comprising . . . ppm of active compound (Pyrenophora teres; 63 ppm) [%],% infection of the leaves after application of an aqueous preparation comprising . . . ppm of active compound (Pyrenophora teres; 250 ppm) [%]
CC(C)C(C)Nc1c(-c2c(F)cc(F)cc2F)c(Cl)nc2ncnn12 (centres unmarked) [I.-14],0,0,30,30,20,15,15,15,3,–,–,–
CC(C)[C@H](C)Nc1c(-c2c(F)cccc2F)c(Cl)nc2ncnn12 [comparison (S)-amine of I.-5],–,100,100,100,100,100,100,100,80,100,–,–
CC[C@H](C)Nc1c(-c2c(Cl)cccc2Cl)c(Cl)nc2ncnn12 [comparison (S)-amine of I.-7],100,–,–,–,100,90,90,90,100,–,100,100
CC(C)[C@H](C)Nc1c(-c2c(F)cc(F)cc2F)c(Cl)nc2ncnn12 [comparison (S)-amine of I.-14],100,5,100,80,80,90,70,70,40,–,–,–
CC(Nc1c(-c2ccccc2Cl)c(Cl)nc2ncnn12)C(C)(C)C [comparison (S)-amine of I.-44a],–,–,100,100,100,100,100,100,100,100,30,–
